Experimental data published in publication PMC10211317, “Identification of ARUK2002821 as an isoform-selective PI5P4Kα inhibitor” (RSC Medicinal Chemistry, 2023).

Experiments:
PI5P4Kβ = molecular target: T1, PI5P4Kβ (Homo sapiens, UniProt P78356); experiment: ADP-Glo kinase assay PI5P4Kβ; format: biochemical; conditions: single concentration of 100 μM
T1 sequence (P78356 1-416): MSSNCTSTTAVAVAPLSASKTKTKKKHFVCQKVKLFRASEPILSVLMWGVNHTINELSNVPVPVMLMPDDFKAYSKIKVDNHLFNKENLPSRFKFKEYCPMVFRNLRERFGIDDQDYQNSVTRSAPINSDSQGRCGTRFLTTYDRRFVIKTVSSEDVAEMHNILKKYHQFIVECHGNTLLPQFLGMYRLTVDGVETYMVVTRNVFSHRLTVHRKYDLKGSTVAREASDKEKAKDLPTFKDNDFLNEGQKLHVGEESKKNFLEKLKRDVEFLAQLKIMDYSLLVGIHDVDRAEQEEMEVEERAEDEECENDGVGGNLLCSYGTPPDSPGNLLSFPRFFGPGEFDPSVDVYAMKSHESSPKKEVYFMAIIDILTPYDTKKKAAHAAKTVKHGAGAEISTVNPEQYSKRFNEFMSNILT
Description: Assays to determine kinase activity of PI5P4Ks in the presence of inhibitors using an ADP-Glo assay (Promega) were performed as described previously.[28] […] Cultures were induced with 0.4 mM IPTG overnight and probe-sonicated in the presence of protease inhibitors. […] The cleaved protein was further purified by size-exclusion chromatography (ÄKTA Pure, Cytiva). […] The protein purity was confirmed by sodium dodecyl sulfate–polyacrylamide gel electrophoresis, and the concentration was determined by colorimetric assay (Bio-Rad).
Statistical analysis was performed using nonparametric testing in Prism 8 (GraphPad). Activity pIC50 values and in vivo binding pEC50 values were estimated using a 4-parameter fit (Dotmatics).

PHK = PHK (Entrez PHK); 1 μM
Description: (§1) room temperature with shaking for 30 minutes. The kinase concentration in the eluates was measured by qPCR.
(§2) using ADP-GloTM assay at the MRC PPU International Centre for Kinase Profiling, University of Dundee.
(§3) Conducted by MRC PPU International Centre
(§4) Conducted by MRC PPU International Centre for […]

PI3Ka E524K + p85 = conditions: 1 μM
Description: as §1, §2, §3, §4

BRK = BRK (Homo sapiens, UniProt Q13882); experiment: Premier Screen kinase panel (MRC PPU); format: biochemical; conditions: BRK (Entrez PTK6), read-out: Residual activity (%)
Description: as §1, §2, §3, §4

CSK = CSK (Homo sapiens, UniProt P41240); experiment: Premier Screen kinase panel (MRC PPU); format: biochemical; conditions: CSK (Entrez CSK), read-out: Residual activity (%)
Description: as §1, §2, §3, §4

DDR2 = DDR2 (Homo sapiens, UniProt Q16832); experiment: Premier Screen kinase panel (MRC PPU); format: biochemical; conditions: DDR2 (Entrez DDR2), read-out: Residual activity (%)
Description: as §1, §2, §3, §4

DYRK2 = DYRK2 (Homo sapiens, UniProt Q92630); experiment: Premier Screen kinase panel (MRC PPU); format: biochemical; conditions: DYRK2 (Entrez DYRK2), read-out: Residual activity (%)
DYRK2, sequence (Q92630 whole entry): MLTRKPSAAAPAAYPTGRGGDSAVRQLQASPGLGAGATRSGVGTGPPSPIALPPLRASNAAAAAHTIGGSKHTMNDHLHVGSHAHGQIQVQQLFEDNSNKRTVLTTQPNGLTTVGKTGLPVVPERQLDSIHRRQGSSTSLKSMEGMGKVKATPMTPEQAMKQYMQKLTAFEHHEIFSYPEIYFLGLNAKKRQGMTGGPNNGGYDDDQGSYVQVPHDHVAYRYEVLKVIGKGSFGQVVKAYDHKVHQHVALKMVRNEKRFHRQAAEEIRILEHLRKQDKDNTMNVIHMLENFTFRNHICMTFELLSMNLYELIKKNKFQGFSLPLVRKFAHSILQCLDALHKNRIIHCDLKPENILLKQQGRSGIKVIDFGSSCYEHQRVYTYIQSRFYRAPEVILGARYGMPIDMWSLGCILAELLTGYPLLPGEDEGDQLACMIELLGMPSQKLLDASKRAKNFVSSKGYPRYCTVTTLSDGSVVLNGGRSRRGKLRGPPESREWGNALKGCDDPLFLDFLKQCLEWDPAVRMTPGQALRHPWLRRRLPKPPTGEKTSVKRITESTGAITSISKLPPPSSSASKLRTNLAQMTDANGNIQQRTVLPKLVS
Description: as §1, §2, §3, §4

ERK2 = ERK2 (Homo sapiens, UniProt P28482); experiment: Premier Screen kinase panel (MRC PPU); format: biochemical; conditions: ERK2 (Entrez MAPK1), read-out: Residual activity (%)
Description: as §1, §2, §3, §4

GSK3b = GSK3b (Homo sapiens, UniProt P49841); experiment: Premier Screen kinase panel (MRC PPU); format: biochemical; conditions: GSK3b (Entrez GSK3B), read-out: Residual activity (%)
GSK3b, sequence (P49841 whole entry): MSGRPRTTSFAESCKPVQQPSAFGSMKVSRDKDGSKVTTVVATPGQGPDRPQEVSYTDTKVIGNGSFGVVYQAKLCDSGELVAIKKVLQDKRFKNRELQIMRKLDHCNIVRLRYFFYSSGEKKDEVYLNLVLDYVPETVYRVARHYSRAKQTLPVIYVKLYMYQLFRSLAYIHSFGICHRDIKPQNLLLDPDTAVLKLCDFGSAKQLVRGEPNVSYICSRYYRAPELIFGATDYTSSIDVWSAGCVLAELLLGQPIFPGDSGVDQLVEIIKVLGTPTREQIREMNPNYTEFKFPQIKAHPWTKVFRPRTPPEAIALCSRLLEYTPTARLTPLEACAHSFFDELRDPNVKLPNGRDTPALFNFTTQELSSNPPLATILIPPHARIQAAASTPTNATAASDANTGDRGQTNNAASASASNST
Description: as §1, §2, §3, §4

HER4 = HER4 (Homo sapiens, UniProt Q15303); experiment: Premier Screen kinase panel (MRC PPU); format: biochemical; conditions: HER4 (Entrez ERBB4), read-out: Residual activity (%)
HER4, sequence (Q15303 26-1308): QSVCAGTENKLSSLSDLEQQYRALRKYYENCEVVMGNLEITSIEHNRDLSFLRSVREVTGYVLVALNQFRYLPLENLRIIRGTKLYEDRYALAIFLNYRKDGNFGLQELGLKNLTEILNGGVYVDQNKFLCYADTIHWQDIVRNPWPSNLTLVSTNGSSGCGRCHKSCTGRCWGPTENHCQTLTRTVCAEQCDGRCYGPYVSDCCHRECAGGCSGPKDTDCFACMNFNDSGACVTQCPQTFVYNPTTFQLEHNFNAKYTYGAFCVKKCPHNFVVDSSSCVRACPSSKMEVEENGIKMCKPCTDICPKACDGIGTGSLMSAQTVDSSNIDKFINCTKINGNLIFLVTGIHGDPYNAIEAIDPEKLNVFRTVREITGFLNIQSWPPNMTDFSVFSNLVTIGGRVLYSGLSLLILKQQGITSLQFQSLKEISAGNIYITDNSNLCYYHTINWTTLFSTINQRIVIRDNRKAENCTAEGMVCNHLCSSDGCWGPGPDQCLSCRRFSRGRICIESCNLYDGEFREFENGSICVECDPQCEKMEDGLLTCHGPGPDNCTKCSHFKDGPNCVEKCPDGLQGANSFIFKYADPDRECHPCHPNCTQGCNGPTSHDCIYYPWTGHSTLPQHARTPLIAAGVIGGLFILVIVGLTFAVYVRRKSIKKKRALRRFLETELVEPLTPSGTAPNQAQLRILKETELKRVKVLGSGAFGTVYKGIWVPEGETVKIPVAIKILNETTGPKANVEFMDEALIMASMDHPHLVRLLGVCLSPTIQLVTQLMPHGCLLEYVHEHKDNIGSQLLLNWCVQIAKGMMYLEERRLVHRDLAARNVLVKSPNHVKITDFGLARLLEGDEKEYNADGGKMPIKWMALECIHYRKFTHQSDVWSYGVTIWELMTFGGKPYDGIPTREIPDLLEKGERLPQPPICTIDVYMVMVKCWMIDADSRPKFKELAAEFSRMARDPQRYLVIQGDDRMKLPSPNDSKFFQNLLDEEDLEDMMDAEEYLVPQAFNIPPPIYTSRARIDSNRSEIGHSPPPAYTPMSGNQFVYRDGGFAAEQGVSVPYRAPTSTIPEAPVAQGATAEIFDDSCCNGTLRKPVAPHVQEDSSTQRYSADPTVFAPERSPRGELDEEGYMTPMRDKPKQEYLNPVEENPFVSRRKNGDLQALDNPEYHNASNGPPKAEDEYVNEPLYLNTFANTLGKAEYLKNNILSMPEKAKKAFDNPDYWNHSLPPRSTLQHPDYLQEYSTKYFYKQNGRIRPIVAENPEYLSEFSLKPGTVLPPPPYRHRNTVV
Description: as §1, §2, §3, §4

HIPK3 = HIPK3 (Homo sapiens, UniProt Q9H422); experiment: Premier Screen kinase panel (MRC PPU); format: biochemical; conditions: HIPK3 (Entrez HIPK3), read-out: Residual activity (%)
Description: as §1, §2, §3, §4

IKKb = IKKb (Homo sapiens, UniProt O14920); experiment: Premier Screen kinase panel (MRC PPU); format: biochemical; conditions: IKKb (Entrez IKBKB), read-out: Residual activity (%)
IKKb, sequence (O14920 whole entry): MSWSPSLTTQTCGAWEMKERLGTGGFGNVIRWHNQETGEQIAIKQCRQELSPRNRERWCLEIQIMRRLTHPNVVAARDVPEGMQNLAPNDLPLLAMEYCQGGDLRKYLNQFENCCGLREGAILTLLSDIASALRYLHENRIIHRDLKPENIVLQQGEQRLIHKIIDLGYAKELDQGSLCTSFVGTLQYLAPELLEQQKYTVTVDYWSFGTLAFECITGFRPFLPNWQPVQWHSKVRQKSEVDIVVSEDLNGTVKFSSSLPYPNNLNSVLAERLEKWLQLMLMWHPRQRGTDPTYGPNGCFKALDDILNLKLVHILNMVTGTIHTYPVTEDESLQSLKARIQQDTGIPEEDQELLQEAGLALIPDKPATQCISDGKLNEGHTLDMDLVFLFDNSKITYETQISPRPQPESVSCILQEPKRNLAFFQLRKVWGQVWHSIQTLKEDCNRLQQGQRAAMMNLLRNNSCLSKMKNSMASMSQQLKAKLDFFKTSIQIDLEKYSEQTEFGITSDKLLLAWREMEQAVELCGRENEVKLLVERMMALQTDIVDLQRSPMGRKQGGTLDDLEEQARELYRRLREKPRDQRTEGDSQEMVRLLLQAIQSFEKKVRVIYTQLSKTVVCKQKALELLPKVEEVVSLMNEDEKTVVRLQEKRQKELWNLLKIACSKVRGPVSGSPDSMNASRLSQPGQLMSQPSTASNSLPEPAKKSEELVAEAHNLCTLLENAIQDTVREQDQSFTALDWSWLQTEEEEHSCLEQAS
Description: as §1, §2, §3, §4

JNK2 = JNK2 (Homo sapiens, UniProt P45984); experiment: Premier Screen kinase panel (MRC PPU); format: biochemical; conditions: JNK2 (Entrez MAPK9), read-out: Residual activity (%)
JNK2, sequence (P45984 whole entry): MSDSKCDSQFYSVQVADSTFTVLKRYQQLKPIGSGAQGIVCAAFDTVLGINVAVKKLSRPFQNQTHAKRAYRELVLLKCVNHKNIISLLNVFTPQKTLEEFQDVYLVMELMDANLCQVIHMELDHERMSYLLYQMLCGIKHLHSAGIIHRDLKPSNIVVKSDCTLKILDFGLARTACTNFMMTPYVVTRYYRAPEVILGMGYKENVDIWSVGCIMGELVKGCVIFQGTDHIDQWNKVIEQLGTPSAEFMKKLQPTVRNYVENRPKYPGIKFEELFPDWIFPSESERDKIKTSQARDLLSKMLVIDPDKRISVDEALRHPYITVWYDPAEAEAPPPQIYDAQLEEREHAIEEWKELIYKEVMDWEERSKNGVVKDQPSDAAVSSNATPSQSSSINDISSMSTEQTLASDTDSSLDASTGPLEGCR
Description: as §1, §2, §3, §4

JNK3 = JNK3 (Homo sapiens, UniProt P53779); experiment: Premier Screen kinase panel (MRC PPU); format: biochemical; conditions: JNK3 (Entrez MAPK10), read-out: Residual activity (%)
Description: as §1, §2, §3, §4

MAP4K5 = MAP4K5 (Homo sapiens, UniProt Q9Y4K4); experiment: Premier Screen kinase panel (MRC PPU); format: biochemical; conditions: MAP4K5 (Entrez MAP4K5), read-out: Residual activity (%)
Description: as §1, §2, §3, §4

MKK2 = MKK2 (Homo sapiens, UniProt P36507); experiment: Premier Screen kinase panel (MRC PPU); format: biochemical; conditions: MKK2 (Entrez MAP2K2), read-out: Residual activity (%)
MKK2, sequence (P36507 whole entry): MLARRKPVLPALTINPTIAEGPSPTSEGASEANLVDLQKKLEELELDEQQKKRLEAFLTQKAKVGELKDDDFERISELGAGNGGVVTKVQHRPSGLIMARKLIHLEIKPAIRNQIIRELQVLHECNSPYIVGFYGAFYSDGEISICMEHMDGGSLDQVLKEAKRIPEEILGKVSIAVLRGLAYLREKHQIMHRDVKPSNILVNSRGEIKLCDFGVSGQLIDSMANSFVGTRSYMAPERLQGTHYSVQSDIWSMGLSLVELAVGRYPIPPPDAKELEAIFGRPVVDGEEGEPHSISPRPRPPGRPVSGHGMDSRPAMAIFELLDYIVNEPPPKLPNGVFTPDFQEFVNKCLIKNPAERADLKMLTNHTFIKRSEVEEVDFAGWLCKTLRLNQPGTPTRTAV
Description: as §1, §2, §3, §4

MKK6 = MKK6 (Homo sapiens, UniProt P52564); experiment: Premier Screen kinase panel (MRC PPU); format: biochemical; conditions: MKK6 (Entrez MAP2K6), read-out: Residual activity (%)
Description: as §1, §2, §3, §4

MLK3 = MLK3 (Homo sapiens, UniProt Q16584); experiment: Premier Screen kinase panel (MRC PPU); format: biochemical; conditions: MLK3 (Entrez MAP3K11), read-out: Residual activity (%)
Description: as §1, §2, §3, §4

PDGFRA = PDGFRA (Homo sapiens, UniProt P16234); experiment: Premier Screen kinase panel (MRC PPU); format: biochemical; conditions: PDGFRA (Entrez PDGFRA), read-out: Residual activity (%)
Description: as §1, §2, §3, §4

PDK1 = PDK1 (Homo sapiens, UniProt O15530); experiment: Premier Screen kinase panel (MRC PPU); format: biochemical; conditions: PDK1 (Entrez PDPK1), read-out: Residual activity (%)
Description: as §1, §2, §3, §4

PKD1 = PKD1 (Homo sapiens, UniProt Q15139); experiment: Premier Screen kinase panel (MRC PPU); format: biochemical; conditions: PKD1 (Entrez PKD1), read-out: Residual activity (%)
PKD1, sequence (Q15139 whole entry): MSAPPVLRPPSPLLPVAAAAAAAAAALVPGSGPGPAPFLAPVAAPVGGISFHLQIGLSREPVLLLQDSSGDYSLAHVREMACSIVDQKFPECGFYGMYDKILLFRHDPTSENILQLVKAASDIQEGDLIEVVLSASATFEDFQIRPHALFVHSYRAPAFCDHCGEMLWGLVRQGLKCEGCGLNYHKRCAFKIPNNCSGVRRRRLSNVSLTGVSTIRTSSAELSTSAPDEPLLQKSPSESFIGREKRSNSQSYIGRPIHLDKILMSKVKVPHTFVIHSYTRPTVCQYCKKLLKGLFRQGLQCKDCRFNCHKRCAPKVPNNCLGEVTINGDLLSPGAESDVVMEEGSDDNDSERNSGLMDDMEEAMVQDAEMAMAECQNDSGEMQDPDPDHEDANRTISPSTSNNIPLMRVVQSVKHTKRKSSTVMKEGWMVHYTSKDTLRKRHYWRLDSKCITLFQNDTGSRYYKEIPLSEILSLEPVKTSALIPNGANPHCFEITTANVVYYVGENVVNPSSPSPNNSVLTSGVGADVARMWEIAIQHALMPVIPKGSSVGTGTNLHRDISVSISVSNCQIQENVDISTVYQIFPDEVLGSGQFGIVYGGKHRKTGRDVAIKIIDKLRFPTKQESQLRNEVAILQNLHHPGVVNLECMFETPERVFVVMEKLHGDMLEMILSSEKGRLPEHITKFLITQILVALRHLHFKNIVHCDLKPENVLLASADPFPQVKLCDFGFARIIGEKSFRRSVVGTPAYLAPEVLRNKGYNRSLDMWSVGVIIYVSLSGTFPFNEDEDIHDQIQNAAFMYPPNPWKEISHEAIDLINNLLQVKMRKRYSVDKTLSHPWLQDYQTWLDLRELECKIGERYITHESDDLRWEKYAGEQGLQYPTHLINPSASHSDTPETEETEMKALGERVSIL
Description: as §1, §2, §3, §4

PLK1 = PLK1 (Homo sapiens, UniProt P53350); experiment: Premier Screen kinase panel (MRC PPU); format: biochemical; conditions: PLK1 (Entrez PLK1), read-out: Residual activity (%)
Description: as §1, §2, §3, §4

TAK1 = TAK1 (Homo sapiens, UniProt O43318); experiment: Premier Screen kinase panel (MRC PPU); format: biochemical; conditions: TAK1 (Entrez MAP3K7), read-out: Residual activity (%)
Description: as §1, §2, §3, §4

TTBK2 = TTBK2 (Homo sapiens, UniProt Q6IQ55); experiment: Premier Screen kinase panel (MRC PPU); format: biochemical; conditions: TTBK2 (Entrez TTBK2), read-out: Residual activity (%)
Description: as §1, §2, §3, §4

WNK1 = WNK1 (Homo sapiens, UniProt Q9H4A3); experiment: Premier Screen kinase panel (MRC PPU); format: biochemical; conditions: WNK1 (Entrez WNK1), read-out: Residual activity (%)
Description: as §1, §2, §3, §4

## COc1ccc(Nc2ncnc3c2ccn3-c2ccc(C)c(C)c2)cc1Cl [compound 36]
PI5P4Kβ
  inhibition at 100 µM: 4%
PHK
  residual activity (%): 94%
PI3Ka E524K + p85
  residual activity (%): 101.5%
BRK
  remaining activity at 1 µM: 126%
CSK
  remaining activity at 1 µM: 104%
DDR2
  remaining activity at 1 µM: 115%
DYRK2
  remaining activity at 1 µM: 108%
ERK2
  remaining activity at 1 µM: 110%
GSK3b
  remaining activity at 1 µM: 102%
HER4
  remaining activity at 1 µM: 80%
HIPK3
  remaining activity at 1 µM: 76%
IKKb
  remaining activity at 1 µM: 75%
JNK2
  remaining activity at 1 µM: 106%
JNK3
  remaining activity at 1 µM: 89%
MAP4K5
  remaining activity at 1 µM: 80%
MKK2
  remaining activity at 1 µM: 82%
MKK6
  remaining activity at 1 µM: 115%
MLK3
  remaining activity at 1 µM: 83%
PDGFRA
  remaining activity at 1 µM: 70%
PDK1
  remaining activity at 1 µM: 133%
PKD1
  remaining activity at 1 µM: 93%
PLK1
  remaining activity at 1 µM: 90%
TAK1
  remaining activity at 1 µM: 91%
TTBK2
  remaining activity at 1 µM: 70%
WNK1
  remaining activity at 1 µM: 105%
